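In this assay, cells in 96-well plates receive the compound at five concentrations for 48 hours. Endpoints are linearly interpolated between the surrounding concentrations. GI50 = concentration required for 50% inhibition of growth.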 Activity calls are given as the source filed them. Rule as the data show it: active = GI50 up to about 1.1 µM and inactive = higher.
Key:
Experiment in all cases: DTP human tumour cell line panel, 48 h
786-0 = system: 786-0
A498 = system: A498
A549 = system: A549
DU-145 = system: DU-145
HCT-116 = system: HCT-116
HOP-92 = system: HOP-92
HT-29 = system: HT-29
KM12 = system: KM12
M14 = system: M14
MDA-N = system: MDA-N
NCI-H522 = system: NCI-H522
PC-3 = system: PC-3
SF-295 = system: SF-295
SK-MEL-2 = system: SK-MEL-2
SK-MEL-5 = system: SK-MEL-5
SN12C = system: SN12C
U-251 = system: U-251
COLO 205 = system: COLO 205
NCI-H226 = system: NCI-H226
SF-539 = system: SF-539

Measured: GI50

Oc1ccc(-c2ccccc2)nn1
inactive: 786-0 > 100 µM | A498 > 100 µM | A549 > 100 µM | DU-145 > 100 µM | HCT-116 > 100 µM | HOP-92 > 100 µM | HT-29 > 100 µM | KM12 > 100 µM | M14 > 100 µM | MDA-N > 100 µM | NCI-H522 > 100 µM | PC-3 > 100 µM | SF-295 > 100 µM | SK-MEL-2 > 100 µM | SK-MEL-5 > 100 µM | SN12C > 100 µM | U-251 > 100 µM

O=C(NCc1ccccc1)c1cc2ccccc2o/c1=N\c1ccccc1F
inactive: 786-0 10.8 µM | A498 38.6 µM | A549 18.1 µM | COLO 205 26.4 µM | DU-145 29.7 µM | HCT-116 23.4 µM | HOP-92 20 µM | HT-29 45.8 µM | KM12 25.7 µM | M14 34.4 µM | MDA-N 34.8 µM | NCI-H226 31.6 µM | NCI-H522 22 µM | PC-3 33.5 µM | SF-295 22 µM | SK-MEL-2 28.1 µM | SK-MEL-5 19.1 µM | SN12C 28.9 µM | U-251 35.5 µM

COc1ccc(/N=N/c2c(C)c(C#N)c(=S)n(C3OC(COC(C)=O)C(OC(C)=O)C(OC(C)=O)C3OC(C)=O)c2-c2ccccc2)cc1 (stereo unspecified)
inactive: 786-0 3.12 µM | A498 1.5 µM | A549 8.18 µM | COLO 205 6.93 µM | DU-145 7.03 µM | HCT-116 4.32 µM | HOP-92 4.01 µM | HT-29 5.94 µM | KM12 8.43 µM | M14 1.94 µM | MDA-N 9.1 µM | PC-3 5.98 µM | SF-295 5.85 µM | SF-539 > 10 µM | SK-MEL-2 8.04 µM | SN12C 7.96 µM | U-251 10.7 µM

CC(C)(C)C1CCC2c3c([nH]c4ccccc34)C3C(=O)N(c4ccccc4[N+](=O)[O-])C(=O)C3C2C1 (stereo unspecified)
inactive: 786-0 12.7 µM | A498 15.5 µM | A549 7 µM | COLO 205 10.5 µM | DU-145 8.39 µM | HCT-116 7.48 µM | HOP-92 1.71 µM | HT-29 4.32 µM | M14 13.8 µM | MDA-N 13.2 µM | NCI-H226 20.2 µM | PC-3 7.6 µM | SF-295 12.3 µM | SF-539 21.5 µM | SK-MEL-2 14.9 µM | SK-MEL-5 13.5 µM | SN12C 14.6 µM | U-251 16 µM

C[N+]1(C)C(c2ccccc2)C(=O)O[B@-]1(F)c1ccccc1 (stereo partly specified)
inactive: 786-0 > 100 µM | A498 25.7 µM | A549 > 100 µM | COLO 205 > 100 µM | DU-145 > 100 µM | HCT-116 > 100 µM | HOP-92 88.1 µM | HT-29 > 100 µM | M14 > 100 µM | MDA-N > 100 µM | NCI-H226 > 100 µM | PC-3 > 100 µM | SF-295 > 100 µM | SK-MEL-5 > 100 µM | SN12C > 100 µM | U-251 > 100 µM

CN(C)CC[N+](C)(C)[BH2-]C(O)O
inactive: 786-0 > 100 µM | A498 > 100 µM | A549 > 100 µM | COLO 205 > 100 µM | DU-145 > 100 µM | HCT-116 > 100 µM | HOP-92 > 100 µM | HT-29 > 100 µM | KM12 > 100 µM | M14 > 100 µM | MDA-N > 100 µM | NCI-H522 > 100 µM | PC-3 > 100 µM | SF-295 > 100 µM | SF-539 > 100 µM | SK-MEL-2 > 100 µM | SK-MEL-5 > 100 µM | SN12C > 100 µM | U-251 > 100 µM

— ChEMBL document CHEMBL1201862, “PubChem BioAssay data set” (2004)
